Source: patent publication US20220125765A1, “PHARMACEUTICAL COMBINATIONS COMPRISING MEBENDAZOLE AND A STRONG OR MODERATE CYP1A2 INHIBITOR” (ZEPHAPHARM LTD, priority 2019, published 2022)
Where two headings read alike, the source gives them in different places. One block for each compound: values may come before it.

Assays:
[1] = Stability in human liver microsomes without and with cimetidine or furafylline (Example 4); type: in vitro ADME; details: human liver microsomes, largest effect over concentrations tested
Description: A minus cofactor control incubation was included for each compound tested where 0.1 M phosphate buffer pH 7.4 was added instead of NADPH (minus NADPH). […] The samples were analysed for mebendazole or phenacetin using LC-MS/MS.
A minus cofactor control incubation was included for each compound tested where 0.1 M phosphate buffer pH 7.4 was added instead of cofactor (minus NADPH). […] The samples were analysed for mebendazole or phenacetin using LC-MS/MS.

[2] = system: human cryopreserved hepatocytes; test: Stability in human cryopreserved hepatocytes without and with cimetidine or furafylline (Example 5); type: in vitro ADME; details: human hepatocytes, largest effect over concentrations tested
Description: The final incubation volume was 500 μL. Two control compounds were included with each species, alongside appropriate vehicle control.
The samples were analysed for mebendazole or ethoxycoumarin using LC-MS/MS.
The final incubation volume was 500 μL.
A positive control compound, ethoxycoumarin, for CYP1A2 was included. […] The samples were analysed for mebendazole or ethoxycoumarin using LC-MS/MS.

[3] = system: human cryopreserved hepatocytes; details: for reduction of metabolism of mebendazole: initial experiments
Description: (§1) The amount of test compound remaining at each time point was analysed by LC-MS/MS. Appropriate control compounds were also incubated.
(§2) The final incubation volume was 500 μL. Appropriate control compounds were included, alongside appropriate vehicle control.
(§3) The reactions were stopped by transferring 50 μL of incubate to 100 μL acetonitrile containing internal standard at the appropriate time points (0, 5, 10, 20, 40 and 60 min). The termination plates were centrifuged at 2500 rpm at 4° C. for 30 min to precipitate the protein.

[4] = system: human cryopreserved hepatocytes; test: Stability in human cryopreserved hepatocytes without and with cimetidine or thiabendazole (Example 6); details: human hepatocytes, largest effect over concentrations tested
human BCRP transporter = human BCRP transporter (Homo sapiens, UniProt Q9UNQ0); details: Caco-2
human BCRP transporter, sequence (Q9UNQ0 whole entry): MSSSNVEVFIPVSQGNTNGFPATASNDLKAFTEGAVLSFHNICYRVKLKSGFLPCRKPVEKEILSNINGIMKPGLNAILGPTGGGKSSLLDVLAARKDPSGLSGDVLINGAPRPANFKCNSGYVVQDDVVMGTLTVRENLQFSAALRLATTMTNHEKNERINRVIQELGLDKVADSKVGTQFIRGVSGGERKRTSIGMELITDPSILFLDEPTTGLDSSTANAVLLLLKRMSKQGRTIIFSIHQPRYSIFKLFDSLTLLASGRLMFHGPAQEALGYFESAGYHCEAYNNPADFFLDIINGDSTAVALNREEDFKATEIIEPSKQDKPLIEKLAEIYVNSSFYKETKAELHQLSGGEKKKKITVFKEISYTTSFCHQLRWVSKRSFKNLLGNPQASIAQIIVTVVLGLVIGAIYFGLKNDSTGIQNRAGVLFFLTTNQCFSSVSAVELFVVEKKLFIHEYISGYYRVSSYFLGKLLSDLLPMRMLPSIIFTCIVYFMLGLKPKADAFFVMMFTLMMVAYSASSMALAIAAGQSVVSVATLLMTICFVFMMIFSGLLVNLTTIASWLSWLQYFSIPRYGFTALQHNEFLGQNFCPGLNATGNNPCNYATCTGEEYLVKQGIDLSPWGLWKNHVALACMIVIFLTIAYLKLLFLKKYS
Description: Bidirectional apparent permeability of test compound was quantified by LC-MS/MS and used to determine an efflux ratio.

[5] = system: human cryopreserved hepatocytes
Description: as §1, §2, §3

in vitro = details: human, cryopreserved hepatocytes, probe mebendazole 1 µM (intrinsic clearance)
Description: as §1, §2, §3

CYP1A2 = CYP1A2 (Homo sapiens, UniProt P05177); details: cited from earlier work
CYP1A2, sequence (P05177 whole entry): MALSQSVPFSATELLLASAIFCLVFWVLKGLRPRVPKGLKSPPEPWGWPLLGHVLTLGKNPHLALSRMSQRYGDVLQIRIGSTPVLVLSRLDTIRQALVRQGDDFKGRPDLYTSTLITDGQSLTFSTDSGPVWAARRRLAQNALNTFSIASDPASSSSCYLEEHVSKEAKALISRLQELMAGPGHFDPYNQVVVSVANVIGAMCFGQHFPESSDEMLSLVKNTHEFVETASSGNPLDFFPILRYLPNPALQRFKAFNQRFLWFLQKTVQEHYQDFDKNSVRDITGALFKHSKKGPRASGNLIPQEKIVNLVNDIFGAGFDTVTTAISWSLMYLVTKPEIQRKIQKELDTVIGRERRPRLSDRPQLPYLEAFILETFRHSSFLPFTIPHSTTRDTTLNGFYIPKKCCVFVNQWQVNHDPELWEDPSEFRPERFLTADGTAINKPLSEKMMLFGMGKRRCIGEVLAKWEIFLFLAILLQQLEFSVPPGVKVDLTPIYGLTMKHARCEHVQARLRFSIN

[6] = system: human cryopreserved hepatocytes; remark: listed apart in the source

Structure (SMILES): CN/C(=N/CCSCc1nc[nH]c1C)NC#N [Cimetidine]
inhibition of intrinsic clearance of mebendazole [1]: 32%
decrease of mebendazole metabolism in presence of the inhibitor [2]: 1.3 fold
inhibition of intrinsic clearance of mebendazole [2]: 25%
effect on metabolism of mebendazole ([3]; in the presence of cimetidine (30-300 μM)): not decreased
decrease of mebendazole metabolism in presence of the inhibitor [4]: 1.2 fold
inhibition of intrinsic clearance of mebendazole [4]: 19%

Structure (SMILES): C[C@]12CC[C@@H]3c4ccc(OS(=O)(=O)O)cc4CC[C@H]3[C@@H]1CCC2=O [Estrone-3-sulfate]
efflux ratio (ER) of positive control substrate (human BCRP transporter): 128

Structure (SMILES): COCCCC/C(=N\OCCN)c1ccc(C(F)(F)F)cc1 [Fluvoxamine]
reduction of metabolism of mebendazole ([3]; at 30 μM fluvoxamine): 2.3 fold
reduction of metabolism of mebendazole ([5]; fluvoxamine 10 to 300 μM, maximum as seen at 10 μM): up to 20.2 fold
inhibition at 10 µM (in vitro): 95%

Continued, in another order:

reduction of metabolism of mebendazole ([3]; at 10 μM mexiletine): 2.7 fold
reduction of metabolism of mebendazole ([5]; mexiletine 10 to 300 μM, maximum as seen at 30 μM): up to 7.8 fold
inhibition at 30 µM (in vitro): 87%
Structure (SMILES): Cc1cccc(C)c1OCC(C)N (centres unmarked) [Mexiletine]

decrease of mebendazole metabolism in presence of the inhibitor [6]: 6.4 fold
inhibition of intrinsic clearance of mebendazole [6]: 84%
Structure (SMILES): c1ccc2[nH]c(-c3cscn3)nc2c1 [Thiabendazole]
IC50 (CYP1A2; read-out: IC50 value for CYP1A2 inhibition): 830 nM
Ki (CYP1A2; read-out: inhibition constant (Ki) value for CYP1A2 inhibition): 1540 nM
